Experiments:
oral test LD 50 = assay type: in vivo
Description: (§1) In actual application, 1 g of MFS 350 anti-bacterial material into 1 kg of raw material can provide a satisfactory result. Of course, the concentration can be adjusted in accordance with the requirements. In experiment, Ag ions oral test LD 50 is larger than 5000 mg1 kg, lethal test LD 50 is larger than 2000 mg1 Kg, which is relatively safe. […] The preferable metallic powder is powdery particle of nanometer in size having an excellent surface ratio. That is, under the same physical condition, a reaction surface is larger; preferably the physical size is 200 nanometer, preferably in the range of 50 to 100 nanometers.

lethal test LD 50 = details: in vivo
Description: as §1

bacteria = assay: anti-bacterial effect of Ag ions; details: Ag ions at 1 ppm concentration
Description: Anti-bacterial material, for example silver ions, of high concentration dispersions towards the low concentration area. By means of a physical stirring and agitating, the anti-bacterial is adsorbed onto the fabric under cleaning.

[Ag+] [Ag ions]
oral test LD 50 (oral test LD 50): > 5000 mg1 kg | lethal test LD 50 (lethal test LD 50): > 2000 mg1 Kg | anti-bacterial effect (bacteria): possess anti-bacterial effect

— patent US20030050212A1, “Constituent of washing aid having anti-bacterial or the like component” (priority 2001, published 2003)
